Measured values published in ChEMBL document CHEMBL5143564, “PES derivative PESA is a potent tool to globally profile cellular targets of PES” (Bioorg Med Chem Lett, 2022).
Activity calls are given as the source filed them. The rule behind the calls is not given here.

Legend:
DOHH-2 [1] = assay: Up regulation of HSP90alpha expression in human DOHH-2 cells at 8 uM measured after 4 to 24 hrs by Western blot analysis; format: functional, cell-based; conditions: time 4-24 hrs
DOHH-2 [2] = assay: Induction of apoptosis in human DOHH-2 cells assessed as increase in cleaved PARP expression at 0.5 to 8 uM measured after 24 hrs by Western blot analysis; format: functional, cell-based; conditions: dose 0.5-8 µM
[3] = molecular target: T1, Protein disulfide-isomerase A6 (Homo sapiens) (UniProt Q15084); assay: Binding affinity to PDIA6 in human DOHH-2 cells by MS analysis; format: cell-based
T1 sequence (whole entry): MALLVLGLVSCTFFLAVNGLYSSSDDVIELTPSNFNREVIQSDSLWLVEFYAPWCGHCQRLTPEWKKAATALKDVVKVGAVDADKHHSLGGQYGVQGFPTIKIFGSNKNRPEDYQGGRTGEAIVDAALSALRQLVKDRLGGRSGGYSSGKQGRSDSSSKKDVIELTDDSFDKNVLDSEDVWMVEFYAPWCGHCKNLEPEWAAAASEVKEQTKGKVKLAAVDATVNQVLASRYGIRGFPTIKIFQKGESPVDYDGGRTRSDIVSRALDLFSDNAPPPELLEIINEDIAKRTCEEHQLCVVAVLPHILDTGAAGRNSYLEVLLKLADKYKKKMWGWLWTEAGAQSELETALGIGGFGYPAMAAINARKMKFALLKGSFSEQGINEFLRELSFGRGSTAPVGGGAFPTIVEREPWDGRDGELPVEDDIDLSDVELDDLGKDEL

Homo sapiens = organism: Homo sapiens; assay: Binding affinity to ADP-bound full-length human HSP70 assessed as cysteine adduct formation at SBDalpha domain by measuring half life at 1 mM by fluorescence spectra analysis
[4] = molecular target: T2, Peroxiredoxin-6 (Homo sapiens) (UniProt P30041); assay: Binding affinity to PRDX6 in human DOHH-2 cells measured after 6 hrs by pull-down assay; format: cell-based; conditions: DDE = dose-dependent effect
T2 sequence (whole entry): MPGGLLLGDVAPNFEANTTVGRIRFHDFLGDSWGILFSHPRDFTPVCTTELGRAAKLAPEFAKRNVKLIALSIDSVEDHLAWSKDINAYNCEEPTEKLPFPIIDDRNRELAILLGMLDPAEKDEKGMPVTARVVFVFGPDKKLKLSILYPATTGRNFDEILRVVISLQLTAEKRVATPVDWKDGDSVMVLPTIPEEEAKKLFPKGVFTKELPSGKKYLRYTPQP

[5] = molecular target: T3, Glutathione S-transferase omega-1 (Homo sapiens) (UniProt P78417); assay: Binding affinity to GSTO1 in human DOHH-2 cells by MS analysis; format: cell-based
T3 sequence (whole entry): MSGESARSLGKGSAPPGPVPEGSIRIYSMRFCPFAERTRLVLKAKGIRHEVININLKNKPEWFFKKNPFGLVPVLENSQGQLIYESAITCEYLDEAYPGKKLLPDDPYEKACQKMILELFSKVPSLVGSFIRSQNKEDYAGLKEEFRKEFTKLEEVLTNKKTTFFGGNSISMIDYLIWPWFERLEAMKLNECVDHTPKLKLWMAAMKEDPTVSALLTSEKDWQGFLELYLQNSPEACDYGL

[6] = molecular target: T4, Thioredoxin-dependent peroxide reductase, mitochondrial (Homo sapiens) (UniProt P30048); assay: Binding affinity to PRDX3 in human DOHH-2 cells measured after 6 hrs by pull-down assay; format: cell-based; conditions: DDE = dose-dependent effect
T4 sequence (whole entry): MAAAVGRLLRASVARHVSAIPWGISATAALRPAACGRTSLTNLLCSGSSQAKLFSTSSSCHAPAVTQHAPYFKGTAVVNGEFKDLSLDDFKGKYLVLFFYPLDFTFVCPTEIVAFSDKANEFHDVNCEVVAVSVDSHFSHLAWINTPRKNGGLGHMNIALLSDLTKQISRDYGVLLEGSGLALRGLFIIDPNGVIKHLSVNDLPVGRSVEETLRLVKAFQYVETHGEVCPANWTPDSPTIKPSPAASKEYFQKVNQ

HepG2 = assay: Cytotoxicity against human HepG2 cells measured after 72 hrs; format: functional, cell-based
Plastin-2 (Homo sapiens) = molecular target: T5, Plastin-2 (Homo sapiens) (UniProt P13796); assay: Binding affinity to plastin-2 in human DOHH-2 cells by MS analysis; format: cell-based
T5 sequence (whole entry): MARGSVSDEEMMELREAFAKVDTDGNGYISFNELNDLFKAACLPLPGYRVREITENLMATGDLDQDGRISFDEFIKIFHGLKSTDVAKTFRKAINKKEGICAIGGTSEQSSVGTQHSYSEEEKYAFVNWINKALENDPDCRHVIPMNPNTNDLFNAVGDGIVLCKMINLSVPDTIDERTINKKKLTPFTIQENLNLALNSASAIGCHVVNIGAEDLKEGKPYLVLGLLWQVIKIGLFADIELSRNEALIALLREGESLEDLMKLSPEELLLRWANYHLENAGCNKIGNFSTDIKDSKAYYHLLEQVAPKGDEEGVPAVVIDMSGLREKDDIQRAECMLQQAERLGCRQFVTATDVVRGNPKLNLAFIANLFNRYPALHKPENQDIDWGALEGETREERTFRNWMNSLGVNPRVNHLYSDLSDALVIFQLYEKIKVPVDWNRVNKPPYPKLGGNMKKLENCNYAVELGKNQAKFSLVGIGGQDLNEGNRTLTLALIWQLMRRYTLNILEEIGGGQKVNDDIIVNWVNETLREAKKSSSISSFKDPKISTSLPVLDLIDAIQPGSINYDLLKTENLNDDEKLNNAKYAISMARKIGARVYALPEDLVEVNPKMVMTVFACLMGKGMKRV

[7] = molecular target: Elongation factor 2 (Homo sapiens) (UniProt P13639); assay: Binding affinity to elongation factor 2 in human MDA-MB-453 cells measured after 6 hrs by pull-down assay; format: cell-based; conditions: dose <= 20.0 µM, DDE = dose-dependent effect
DOHH-2 [8] = assay: Cytotoxicity against human DOHH-2 cells measured after 72 hrs; format: functional, cell-based

Q: Which Activity (DOHH-2 [1]) does the source give for C#Cc1cccc(C#CS(N)(=O)=O)c1 here?
A: Active

Q: What about the Activity (DOHH-2 [2]) of the same molecule?
A: Active

Q: What about the Activity [3] of the same molecule?
A: Active

Q: And the T1/2 (Homo sapiens)?
A: 1.53 h

Q: What about the Activity [4] of the same molecule?
A: Dde

Q: And the Activity [5]?
A: Active

Q: What about the Activity [6] of the same molecule?
A: Dde

Q: And the Activity (HepG2)?
A: Active

Q: And the Activity (Plastin-2 (Homo sapiens))?
A: Active

Q: What about the Activity [7] of the same molecule?
A: Dde

Q: What about the Activity (DOHH-2 [8]) of the same molecule?
A: Active
